From patent US20210155604A1, “QUINAZOLINE COMPOUND SERVING AS EGFR TRIPLE MUTATION INHIBITOR AND APPLICATIONS THEREOF” (EAST CHINA UNIVERSITY OF SCIENCE AND TECHNOLOGY, priority 2018, published 2021)

Assays:
[1] = target: T1, EGFR L858R/T790M/C797S (LR/TM/CS) (Homo sapiens, UniProt P00533, C797S/L858R/T790M); assay: ELISA kinase activity detection, EGFR triple mutant; assay type: biochemical; conditions: ELISA-based EGFR-TK assay, ATP 5 μM, mean ± SD
T1 construct: purchased BPS Bioscience
Method: (§1) Tyrosine kinase: EGFR(WT) • EGFR^T790M/L858R(LR/TM) • EGFR^T790M/L858R/[…](LR/TM/CS)
(§2) ELISA Kinase Activity Detection
Enzyme-Linked Immunosorbent Assay (ELISA) was used to detect the ability of a kinase to phosphorylate a substrate and calculate the inhibitory effect of a compound on the kinase activity. The used kinase was EGFR L858R/T790M/C797S (purchased from BPS Bioscience).
(§3) The main steps of ELISA are listed as follows: the substrate Poly(Glu, Tyr) 4:1 was diluted with potassium ion-free PBS to 2.5 μg/well, incubated at 37° C. for 12-16 h to coat the ELISA plate for use. An ATP solution (final concentration of 5 μM) diluted with a reaction buffer (50 mM HEPES pH 7.4, 20 mM MgCl2, 0.1 mM MnCl2, 0.2 mM Na3VO4, 1 mM DTT) was added to each well. A compound or solvent control was added, and then a kinase was added to start the reaction at 37° C. in a shaker for 1 h. The plate was washed for three times with T-PBS, and 100 μL of antibody PY99 (diluted in T-PBS containing 5 mg/mL BSA, 1: 500) was added, and incubated in a shaker at 37° C. for 0.5 h. After washing the plate with T-PBS, 100 μL of horseradish peroxidase-labeled goat anti-mouse IgG (diluted in T-PBS containing 5 mg/mL BSA, 1: 2000) was added, and incubated in a shaker at 37° C. for 0.5 h. After washing the plate again, a developing liquid containing 0.03% H2O2, 2 mg/mL OPD (0.1 mol/L, in citrate buffer solution pH 5.4) was added at 100 μL/well, and incubated for 1-10 min at 25° C. in darkness. 50 μL/well of 2 M H2SO4 was added to quench the reaction, and read with a wavelength-tunable microplate reader (SpectraMax Plus384, Molecular Devices) at a wavelength of 490 nm. The IC50 value was obtained from the inhibition curve.

EGFR(WT) = EGFR(WT) (Homo sapiens, UniProt P00533); assay: ELISA kinase activity detection, EGFR(WT); assay type: biochemical; conditions: ELISA-based EGFR-TK assay, ATP 5 μM; mean ± SD of at least two determinations
EGFR(WT), sequence (P00533 25-1210): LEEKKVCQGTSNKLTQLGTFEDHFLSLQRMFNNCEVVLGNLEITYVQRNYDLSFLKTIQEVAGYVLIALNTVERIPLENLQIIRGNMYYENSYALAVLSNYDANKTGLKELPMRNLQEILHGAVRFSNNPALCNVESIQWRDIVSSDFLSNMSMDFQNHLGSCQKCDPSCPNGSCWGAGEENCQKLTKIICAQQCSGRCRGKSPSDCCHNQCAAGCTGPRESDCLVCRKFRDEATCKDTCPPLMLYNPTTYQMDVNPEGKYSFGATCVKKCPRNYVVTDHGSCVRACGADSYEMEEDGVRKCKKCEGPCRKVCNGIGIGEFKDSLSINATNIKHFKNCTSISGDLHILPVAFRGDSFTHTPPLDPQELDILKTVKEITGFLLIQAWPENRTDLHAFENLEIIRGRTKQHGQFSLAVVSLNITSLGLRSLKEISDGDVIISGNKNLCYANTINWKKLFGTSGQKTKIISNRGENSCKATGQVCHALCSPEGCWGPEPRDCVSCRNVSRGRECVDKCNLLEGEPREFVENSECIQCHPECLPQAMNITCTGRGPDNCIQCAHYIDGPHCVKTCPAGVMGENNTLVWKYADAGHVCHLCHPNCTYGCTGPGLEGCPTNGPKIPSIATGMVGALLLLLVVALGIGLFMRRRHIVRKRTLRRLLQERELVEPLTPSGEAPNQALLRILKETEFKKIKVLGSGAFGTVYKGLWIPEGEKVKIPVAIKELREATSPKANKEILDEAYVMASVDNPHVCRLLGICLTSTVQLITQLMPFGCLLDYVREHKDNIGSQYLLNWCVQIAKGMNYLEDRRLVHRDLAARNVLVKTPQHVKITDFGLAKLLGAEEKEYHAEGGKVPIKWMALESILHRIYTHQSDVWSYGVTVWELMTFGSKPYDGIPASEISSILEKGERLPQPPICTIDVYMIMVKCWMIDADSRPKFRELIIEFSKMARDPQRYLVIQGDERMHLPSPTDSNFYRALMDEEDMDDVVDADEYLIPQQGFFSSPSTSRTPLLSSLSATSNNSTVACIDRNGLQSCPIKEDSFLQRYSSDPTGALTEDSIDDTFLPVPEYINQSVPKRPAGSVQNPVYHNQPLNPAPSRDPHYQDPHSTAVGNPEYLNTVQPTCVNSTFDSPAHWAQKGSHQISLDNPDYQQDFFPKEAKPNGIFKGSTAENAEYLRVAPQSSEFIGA
Method: as §1, §2
Enzyme-Linked Immunosorbent Assay (ELISA) was used to detect the ability of a kinase to phosphorylate a substrate and calculate the inhibitory effect of a compound on the kinase activity. […]
as §3

EGFR L858R/T790M (LR/TM) = EGFR L858R/T790M (LR/TM) (Homo sapiens, UniProt P00533, L858R/T790M); assay: ELISA kinase activity detection, EGFR double mutant; assay type: biochemical; conditions: ELISA-based EGFR-TK assay, ATP 5 μM, mean ± SD
EGFR L858R/T790M (LR/TM), sequence (P00533 25-1210 T790M/L858R): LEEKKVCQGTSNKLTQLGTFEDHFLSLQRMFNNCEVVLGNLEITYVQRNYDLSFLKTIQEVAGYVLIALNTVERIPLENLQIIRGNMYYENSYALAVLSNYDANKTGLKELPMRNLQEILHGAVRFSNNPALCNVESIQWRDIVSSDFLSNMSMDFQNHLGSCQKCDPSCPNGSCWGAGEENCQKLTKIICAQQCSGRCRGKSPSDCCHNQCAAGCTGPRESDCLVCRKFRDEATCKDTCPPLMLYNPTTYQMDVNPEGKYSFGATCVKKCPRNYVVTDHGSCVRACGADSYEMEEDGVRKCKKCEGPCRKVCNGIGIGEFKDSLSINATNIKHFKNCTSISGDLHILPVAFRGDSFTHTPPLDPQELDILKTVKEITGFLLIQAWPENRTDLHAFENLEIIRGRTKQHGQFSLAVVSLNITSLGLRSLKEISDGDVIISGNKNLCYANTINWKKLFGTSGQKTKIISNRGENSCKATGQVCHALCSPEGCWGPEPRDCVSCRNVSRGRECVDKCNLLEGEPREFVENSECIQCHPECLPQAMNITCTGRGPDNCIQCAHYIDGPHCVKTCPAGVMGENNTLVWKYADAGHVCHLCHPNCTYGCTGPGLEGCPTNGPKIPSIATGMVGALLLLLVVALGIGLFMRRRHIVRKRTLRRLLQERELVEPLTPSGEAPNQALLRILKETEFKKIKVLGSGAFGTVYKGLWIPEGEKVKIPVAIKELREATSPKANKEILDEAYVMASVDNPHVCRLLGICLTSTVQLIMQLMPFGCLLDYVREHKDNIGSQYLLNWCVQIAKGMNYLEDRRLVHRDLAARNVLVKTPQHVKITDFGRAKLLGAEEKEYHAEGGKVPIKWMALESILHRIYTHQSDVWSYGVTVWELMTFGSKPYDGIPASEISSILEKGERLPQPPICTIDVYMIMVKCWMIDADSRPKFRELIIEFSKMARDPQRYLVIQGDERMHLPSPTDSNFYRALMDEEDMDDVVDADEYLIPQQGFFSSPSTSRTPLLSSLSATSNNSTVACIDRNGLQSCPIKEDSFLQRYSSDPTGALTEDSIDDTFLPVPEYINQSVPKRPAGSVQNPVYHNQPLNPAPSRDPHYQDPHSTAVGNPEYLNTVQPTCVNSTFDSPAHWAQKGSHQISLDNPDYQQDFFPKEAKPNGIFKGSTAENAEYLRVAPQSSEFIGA

T1 sequence (P00533 25-1210 T790M/C797S/L858R): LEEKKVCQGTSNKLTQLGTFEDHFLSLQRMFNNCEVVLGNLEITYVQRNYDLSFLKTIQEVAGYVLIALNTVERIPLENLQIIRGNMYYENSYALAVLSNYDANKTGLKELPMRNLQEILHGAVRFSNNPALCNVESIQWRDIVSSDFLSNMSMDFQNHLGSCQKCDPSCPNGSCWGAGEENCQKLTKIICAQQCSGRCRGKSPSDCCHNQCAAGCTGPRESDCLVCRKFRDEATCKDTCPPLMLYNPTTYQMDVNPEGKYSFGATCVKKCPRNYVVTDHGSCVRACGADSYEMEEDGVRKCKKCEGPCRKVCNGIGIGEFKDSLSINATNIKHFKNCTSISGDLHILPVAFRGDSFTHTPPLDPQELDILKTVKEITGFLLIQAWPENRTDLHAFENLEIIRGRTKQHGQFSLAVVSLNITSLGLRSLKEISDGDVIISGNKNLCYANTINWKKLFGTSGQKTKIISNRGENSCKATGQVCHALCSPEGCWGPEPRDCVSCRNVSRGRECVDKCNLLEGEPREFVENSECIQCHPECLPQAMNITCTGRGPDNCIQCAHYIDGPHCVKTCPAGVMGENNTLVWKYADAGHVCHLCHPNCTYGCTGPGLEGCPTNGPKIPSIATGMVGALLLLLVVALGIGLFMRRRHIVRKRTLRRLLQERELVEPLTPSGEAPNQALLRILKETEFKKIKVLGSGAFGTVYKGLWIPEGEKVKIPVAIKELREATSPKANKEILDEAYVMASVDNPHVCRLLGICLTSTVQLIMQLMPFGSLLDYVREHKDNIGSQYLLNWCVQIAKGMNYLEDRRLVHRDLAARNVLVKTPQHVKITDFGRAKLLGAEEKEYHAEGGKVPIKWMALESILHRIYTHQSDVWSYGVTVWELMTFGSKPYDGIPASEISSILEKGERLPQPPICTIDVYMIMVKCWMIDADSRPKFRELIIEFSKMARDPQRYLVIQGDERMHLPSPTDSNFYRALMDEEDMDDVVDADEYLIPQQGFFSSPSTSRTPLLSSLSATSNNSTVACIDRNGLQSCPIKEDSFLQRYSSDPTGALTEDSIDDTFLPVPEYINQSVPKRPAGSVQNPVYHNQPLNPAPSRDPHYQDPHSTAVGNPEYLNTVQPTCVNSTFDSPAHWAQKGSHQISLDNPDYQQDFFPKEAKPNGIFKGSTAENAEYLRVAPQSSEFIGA

Row | Structure (SMILES) | IC50 [1] [nM] | IC50 (EGFR(WT)) [nM] | IC50 (EGFR L858R/T790M (LR/TM)) [nM] | melting point [°C]
1 | COc1cc2c(Nc3ccc(NC(=O)C(c4cccc(F)c4)N4Cc5ccccc5C4=O)cc3F)ncnc2cc1OCC1CCN(C)CC1 (stereo not drawn) [Example 22, N-(3-Fluoro-4-((6-methoxy-7-((1-methylpiperidin-4-yl)methoxy)quinazolin-4-yl)amino)phenyl)-2-(3fluorophenyl)-2-(1-oxoisoindolin-2-yl)acetamide] | 13.4 ± 2.7 | 2 ± 0.5 | 6.7 ± 2.2 | 
2 | COc1cc2ncnc(Nc3cc(NC(=O)c4ccccc4)ccc3F)c2cc1OC [Example 16] | > 10000 | 137 ± 80.2 | > 10000 | 
3 | COc1cc2c(Nc3ccc(NC(=O)C(c4cc(F)ccc4F)N4Cc5ccccc5C4=O)cc3F)ncnc2cc1OCC1CCN(C)CC1 (stereo not drawn) [Example 28, 2-(2,5-Difluorophenyl)-N-(3-fluoro-4-((6-methoxy-7-((1-methylpiperidin-4-yl)methoxy)quinazolin-4-yl)amino)phenyl)-2-(1-oxoisoindolin-2-yl)acetamide] | 27.5 ± 17.7 | 2.5 ± 0.8 | 35.3 ± 12.1 | 
4 | COc1cc2c(Nc3ccc(OCc4ccccc4)cc3)ncnc2cc1OCC1CCN(C)CC1 [Example 7, N-(4-(benzyloxy)phenyl)-6-methoxy-7-((1-methylpiperidin-4-yl)methoxy)quinazolin-4-amine] | 5570 ± 1000 | 2.6 ± 1.3 | 4630 ± 825 | 
5 | COc1cc2c(Nc3cc(NC(=O)C(c4ccccc4)N4Cc5ccccc5C4=O)ccc3F)ncnc2cc1OCC1CCN(C)CC1 (stereo not drawn) [Example 18] | 14.5 ± 5.2 | 1.3 ± 0.6 | 3.2 ± 1.3 | 
6 | COc1cc2c(Nc3ccc(NC(=O)[C@@H](c4ccccc4)N4Cc5ccccc5C4=O)cc3F)ncnc2cc1OCC1CCN(C)CC1 [Example 20, (R)—N-(3-Fluoro-4-((6-methoxy-7-((1-methylpiperidin-4-yl)methoxy)quinazolin-4-yl)amino)phenyl)-2-(1-oxoisoindolin-2-yl)-2-phenylacetamide] | 19.2 ± 3.2 | 3.5 ± 1 | 6.4 ± 1.6 | 
7 | COc1cc2c(Nc3ccc(NC(=O)C(C)c4ccccc4)cc3F)ncnc2cc1OCC1CCN(C)CC1 (stereo not drawn) [Example 9, N-(3-Fluoro-4-((6-methoxy-7-((1-methylpiperidin-4-yl)methoxy)quinazolin-4-yl)amino)phenyl)-2-phenylpropionamide] | 4810 ± 2920 | 7.7 ± 1.8 | 2560 ± 800 | 199.6 to 199.8
8 | COc1cc2c(Nc3cc(NC(=O)CC4Cc5ccccc5C4)ccc3F)ncnc2cc1OCC1CCN(C)CC1 [Example 6, 2-(2,3-Dihydro-1H-inden-2-yl)-N-(4-fluoro-3-((6-methoxy-7-((1-methylpiperidin-4-yl)methoxy)quinazolin-4-yl)amino)phenyl)acetamide] | > 10000 | 1100 ± 180 | 3030 ± 689 | 
9 | COc1cc2c(Nc3ccc(NC(=O)c4ccccc4)cc3F)ncnc2cc1OCC1CCN(C)CC1 [Example 1] | > 10000 | 59.9 ± 1.8 | 6630 ± 657 | 
10 | COc1cc2c(Nc3ccc(NC(=O)CC4Cc5ccccc5C4)cc3F)ncnc2cc1OCC1CCN(C)CC1 [Example 5] | > 10000 | 68.3 ± 13 | 1380 ± 235 | 
11 | COc1cc2ncnc(Nc3ccc(NC(=O)C(c4ccccc4)N4Cc5ccccc5C4=O)cc3F)c2cc1OC (stereo not drawn) [Example 17] | 37.1 ± 18.8 | 16.1 ± 4.8 | 8.5 ± 0.7 | 
12 | COCCOc1cc2ncnc(Nc3ccc(NC(=O)C(c4ccccc4)N4Cc5ccccc5C4=O)cc3F)c2cc1OCCOC (stereo not drawn) [Example 26, (4-((6,7-bis(2-methoxyethoxy)quinazolin-4-yl)amino)-3-fluorophenyl)-2-(1-oxoisoindolin-2-yl)-2-phenylacetamide] | 8.5 ± 2.6 | 0.7 ± 0.1 | 1.5 ± 0.2 | 
13 | COc1cc2c(Nc3ccc(NC(=O)Cc4ccccc4)cc3F)ncnc2cc1OCC1CCN(C)CC1 [Example 3, N-(3-Fluoro-4-((6-methoxy-7-((1-methylpiperidin-4-yl)methoxy)quinazolin-4-yl)amino)phenyl)-2-phenylacetamide] | > 10000 | 3.7 ± 1.6 | 7560 ± 1200 | 
14 | COc1cc2ncnc(Nc3ccc(NC(=O)C(c4ccccc4)N4Cc5ccccc5C4=O)cc3F)c2cc1OCCCN1CCOCC1 (stereo not drawn) [Example 25, (3-Fluoro-4-((7-methoxy-6-(3-morpholinopropoxy)quinazolin-4-yl)amino)phenyl)-2-(1-oxoisoindolin-2-yl)-2-phenylacetamide] | 97.5 ± 12.9 | 1.6 ± 0.3 | 7.3 ± 1.3 | 
15 | CN1CCC(COc2ccc3c(Nc4ccccc4P(C)(C)=O)ncnc3c2)CC1 [Example 14] | 9510 ± 526 | 2710 ± 80.2 | > 10000 | 170.7 to 172.4
16 | COc1cc2c(Nc3ccc(NC(=O)C(c4ccccc4)N4Cc5ccccc5C4=O)cc3F)ncnc2cc1OCC1CCN(C)CC1 (stereo not drawn) [Example 12] | 14.5 ± 3.3 | 1.3 ± 0.3 | 3.2 ± 0.8 | 
17 | COc1cc2c(Nc3ccc(NC(=O)C(C4CCCCC4)N4Cc5ccccc5C4=O)cc3F)ncnc2cc1OCC1CCN(C)CC1 (stereo not drawn) [Example 21, 2-cyclohexyl-N-(3-fluoro-4-((6-methoxy-7-((1-methylpiperidin-4-yl)methoxy)quinazoline-4-yl)amino)phenyl)-2-(1-oxoisoindolin-2-yl)acetamide] | 361 ± 123 | 27.1 ± 12 | 180 ± 94.9 | 
18 | COc1cc2c(Nc3ccccc3P(C)(C)=O)ncnc2cc1OCC1CCN(C)CC1 [Example 13, (2-((6-methoxy-7-((1-methylpiperidin-4-yl)methoxy)quinazolin-4-yl)amino)phenyl)dimethyl phosphine oxide] | > 10000 | 7340 ± 2520 | > 10000 | 150.5 to 150.8
19 | COc1cc2c(Nc3ccc(NC(=O)C(c4ccccc4)C(C)C)cc3F)ncnc2cc1OCC1CCN(C)CC1 (stereo not drawn) [Example 10, N-(3-Fluoro-4-((6-methoxy-7-((1-methylpiperidin-4-yl)methoxy)quinazolin-4-yl)amino)phenyl)-3-methyl-2-phenylbutanamide] | 3190 ± 2500 | 23.1 ± 8.3 | 2030 ± 755 | 196 to 196.2
20 | COc1cc2c(Nc3cc(NC(=O)c4ccccc4)ccc3F)ncnc2cc1OCC1CCN(C)CC1 [Example 2, N-(4-Fluoro-3-((6-methoxy-7-((1-methylpiperidin-4-yl)methoxy)quinazolin-4-yl)amino)phenyl)benamide] | > 10000 | 53.7 ± 13.8 | > 10000 | 
21 | COc1cc2ncnc(Nc3ccc(NC(=O)C(c4ccccc4)N4Cc5ccccc5C4=O)cc3F)c2cc1OCC1CCN(C)CC1 (stereo not drawn) [Example 23] | 18 ± 8.6 | 0.8 ± 0.3 | 2.4 ± 0.5 | 
22 | COc1cc2ncnc(Nc3ccc(NC(=O)C(c4ccccc4)N4Cc5ccccc5C4=O)cc3F)c2cc1OCN1CCN(C)CC1 (stereo not drawn) [Example 24] | 19.1 ± 4.6 | 1 ± 0.2 | 4.8 ± 0.7 | 
23 | COc1cc2c(Nc3ccc(NC(=O)[C@H](c4ccccc4)N4Cc5ccccc5C4=O)cc3F)ncnc2cc1OCC1CCN(C)CC1 [Example 19, (S)—N-(3-Fluoro-4-((6-methoxy-7-((1-methylpiperidin-4-yl)methoxy)quinazolin-4-yl)amino)phenyl)-2-(1-oxoisoindolin-2-yl)-2-phenylacetamide] | 7.9 ± 2 | 4.6 ± 2.8 | 8.6 ± 2.1 | 
24 | COc1cc2c(Nc3cc(NC(=O)Cc4ccccc4)ccc3F)ncnc2cc1OCC1CCN(C)CC1 [Example 4, N-(4-Fluoro-3-((6-methoxy-7-((1-methylpiperidin-4-yl)methoxy)quinazolin-4-yl)amino)phenyl)-2-phenylacetamide] | > 10000 | 1350 ± 312 | > 10000 | 
25 | COc1cc2ncnc(Nc3ccc(NC(=O)c4ccccc4)cc3F)c2cc1OC [Example 15] | > 10000 |  | > 10000 | 
26 | COc1cc2nc(N)nc(Nc3ccc(NC(=O)C(c4ccccc4)N4Cc5ccccc5C4=O)cc3F)c2cc1OC (stereo not drawn) [Example 27, (4-((2-amino-6,7-dimethoxyquinazolin-4-yl)amino)-3-fluorophenyl)-2-(1-oxoisoindoline-2-yl)-2-phenylacetamide] | > 10000 | 388 ± 55.3 | > 10000 | 
